In patent US20260069592A1 (WEISHANG (SHANGHAI) BIO-PHARMACEUTICAL CO., LTD., priority 2023, published 2026):
pIC50: −log10 of the molar value. Where two headings read alike, the source gives them in different places.

Experiments:
[1] = biological target: EGFR Del19/C797S dual mutations (Homo sapiens, UniProt P00533, C797S, form not given); assay: Kinase inhibition assay (HTRF)
Ba/F3 L858R/C797S cells = assay: Antiproliferative activity assay (CellTiter-Glo, 72 h); assay type: cell-based; settings: for pIC50: Mus musculus
Procedure: (§1) After incubating the cells in a 5% CO2 incubator at 37° C. for 72 hours, 25 μL of CellTiter-Glo reagent (CTG) was added to each well and the plate was gently shaken and incubated in a 5% CO2 incubator at 37° C. (protected from light) for 30 minutes. […] was measured using the Envision reader.

Ba/F3 Del19/C797S cells = assay: as above; assay type: cell-based; settings: for pIC50: Mus musculus
Procedure: as §1

EGFR C797S = EGFR C797S (Homo sapiens, UniProt P00533, C797S); assay: Kinase inhibition assay (HTRF)
Procedure: (§2) At room temperature, 5 μL each of kinase, peptide substrate (TK-substrate-biotin), and ATP were added to the plate and incubated at room temperature for 40 minutes.

[2] = biological target: EGFR L858R/C797S dual mutations (Homo sapiens, UniProt P00533, C797S/L858R); assay: Kinase inhibition assay (HTRF)
Procedure: as §2

EGFR L792H = EGFR L792H (Homo sapiens, UniProt P00533, L792H); assay: Kinase inhibition assay (HTRF)
Procedure: as §2

SMILES: C#Cc1cccc(Nc2ncnc3cc(OC)c(O[C@@H]4CCN(C)CC4(F)F)cc23)c1F [Quinazoline derivative (I), (R)-6-[(3,3-difluoro-1-methylpiperidin-4-yl)oxy]-N-(3-ethynyl-2-fluorophenyl)-7-methoxyquinazolin-4-amine]
- pIC50 [1]: 9.88
- Relative bioactivity, times that of osimertinib [1]: ~498 times
- Relative potency % [1]: 49809.0%
- Relative bioactivity, times that of osimertinib (Ba/F3 L858R/C797S cells; Ba/F3 L858R/C797S): approximately 490 times
- Relative potency % (Osimertinib IC50/Quinazoline derivative (I) IC50×100%) (Ba/F3 L858R/C797S cells; Ba/F3 L858R/C797S): 49004.3%
- pIC50 (Ba/F3 L858R/C797S cells; BaF3, Ba/F3 L858R/C797S, 72 hours, CellTiter-Glo, read-out: IC50): 8.59
- Relative bioactivity, times that of osimertinib (Ba/F3 Del19/C797S cells; Ba/F3 Del19/C797S): ~4900 times
- Relative potency % (Osimertinib IC50/Quinazoline derivative (I) IC50×100%) (Ba/F3 Del19/C797S cells; Ba/F3 Del19/C797S): 490370.4%
- pIC50 (Ba/F3 Del19/C797S cells; BaF3, Ba/F3 Del19/C797S, 72 hours, CellTiter-Glo, read-out: IC50): 9.57
- pIC50 (EGFR C797S): 9.02
- Relative bioactivity, times that of osimertinib (EGFR C797S; EGFR C797S kinase): > 1052 times
- Relative potency % (EGFR C797S; EGFR C797S kinase): >105263%
- pIC50 [2]: 10.43
- Relative bioactivity, times that of osimertinib ([2]; EGFR L858R/C797S kinase): ~93118 times
- Relative potency % ([2]; EGFR L858R/C797S kinase): 9311751.9%
- pIC50 (EGFR L792H): 8.47
- Relative bioactivity, times that of osimertinib (EGFR L792H; EGFR L792H kinase): ~49 times
- Relative potency % (EGFR L792H; EGFR L792H kinase): 4918%

SMILES: C=CC(=O)Nc1cc(Nc2nccc(-c3cn(C)c4ccccc34)n2)c(OC)cc1N(C)CCN(C)C [Osimertinib, osimertinib, reference compound]
- pIC50 (Ba/F3 L858R/C797S cells; BaF3, 72 h): 5.90
- pIC50 (Ba/F3 Del19/C797S cells; BaF3, 72 h): 5.88
